# System: P12-Ichikawa
# Experiment: cell viability relative to DMSO control; higher = less cytotoxic
# Details: 48 h
# Outline: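 Viability is expressed as a percentage of DMSO wells within each plate, and cell-free wells serve as background. Seeding densities in the 1536-well plates (5 μl) were 500 cells/well for NOMO1 or SEM leukemia cells and 1000 cells/well for P12-Ichikawa. Each line was adapted for at least four passages in each medium. Library compounds in DMSO were pin-dosed at 47 μM to 0.79 nM (11 points, threefold), and CellTiter-Glo One luminescence was read after 48 h at 37°C.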
# [1] = HPLM + 10% dialyzed FBS, 0.000781 µM
# [2] = HPLM + 10% dialyzed FBS, 0.00234 µM
# [3] = HPLM + 10% dialyzed FBS, 0.00702 µM
# [4] = HPLM + 10% dialyzed FBS, 0.0211 µM
# [5] = HPLM + 10% dialyzed FBS, 0.0632 µM
# [6] = HPLM + 10% dialyzed FBS, 0.19 µM
# [7] = HPLM + 10% dialyzed FBS, 0.569 µM
# [8] = HPLM + 10% dialyzed FBS, 1.71 µM
# [9] = HPLM + 10% dialyzed FBS, 5.12 µM
# [10] = HPLM + 10% dialyzed FBS, 15.4 µM
# [11] = HPLM + 10% dialyzed FBS, 46.1 µM
# [12] = RPMI 5 mM glucose + 10% FBS, 0.000781 µM
# [13] = RPMI 5 mM glucose + 10% FBS, 0.00234 µM
# [14] = RPMI 5 mM glucose + 10% FBS, 0.00702 µM
# [15] = RPMI 5 mM glucose + 10% FBS, 0.0211 µM
# [16] = RPMI 5 mM glucose + 10% FBS, 0.0632 µM
# [17] = RPMI 5 mM glucose + 10% FBS, 0.19 µM
# [18] = RPMI 5 mM glucose + 10% FBS, 0.569 µM
# [19] = RPMI 5 mM glucose + 10% FBS, 1.71 µM
# [20] = RPMI 5 mM glucose + 10% FBS, 5.12 µM
# [21] = RPMI 5 mM glucose + 10% FBS, 15.4 µM
# [22] = RPMI 5 mM glucose + 10% FBS, 46.1 µM
# [23] = RPMI 5 mM glucose + 10% dialyzed FBS, 0.000781 µM
# [24] = RPMI 5 mM glucose + 10% dialyzed FBS, 0.00234 µM
# [25] = RPMI 5 mM glucose + 10% dialyzed FBS, 0.00702 µM
# [26] = RPMI 5 mM glucose + 10% dialyzed FBS, 0.0211 µM
# [27] = RPMI 5 mM glucose + 10% dialyzed FBS, 0.0632 µM
# [28] = RPMI 5 mM glucose + 10% dialyzed FBS, 0.19 µM
# [29] = RPMI 5 mM glucose + 10% dialyzed FBS, 0.569 µM
# [30] = RPMI 5 mM glucose + 10% dialyzed FBS, 1.71 µM
# [31] = RPMI 5 mM glucose + 10% dialyzed FBS, 5.12 µM
# [32] = RPMI 5 mM glucose + 10% dialyzed FBS, 15.4 µM
# [33] = RPMI 5 mM glucose + 10% dialyzed FBS, 46.1 µM
structure (smiles),measurement,setting,value
C[Se]CCC(N)C(=O)O (stereo unspecified),cell viability,[1],88.7%
same,cell viability,[2],86.3%
same,cell viability,[3],89.6%
same,cell viability,[4],84.9%
same,cell viability,[5],88.4%
same,cell viability,[6],85.1%
same,cell viability,[7],87.4%
same,cell viability,[8],88.7%
same,cell viability,[9],78.8%
same,cell viability,[10],78.8%
same,cell viability,[11],78.6%
same,cell viability,[12],77.1%
same,cell viability,[13],84.8%
same,cell viability,[14],81.9%
same,cell viability,[15],82.6%
same,cell viability,[16],85.9%
same,cell viability,[17],84.4%
same,cell viability,[18],81.6%
same,cell viability,[19],79.6%
same,cell viability,[20],83.1%
same,cell viability,[21],79%
same,cell viability,[22],75.6%
same,cell viability,[23],85.9%
same,cell viability,[24],77.2%
same,cell viability,[25],83.2%
same,cell viability,[26],85.1%
same,cell viability,[27],88.2%
same,cell viability,[28],85.8%
same,cell viability,[29],74.9%
same,cell viability,[30],76.4%
same,cell viability,[31],80.7%
same,cell viability,[32],78.1%
same,cell viability,[33],79%
CC(=O)SCC(Cc1ccccc1)C(=O)NCC(=O)OCc1ccccc1 (stereo unspecified),cell viability,[1],93.4%
same,cell viability,[2],92.2%
same,cell viability,[3],103%
same,cell viability,[4],104%
same,cell viability,[5],103%
same,cell viability,[6],102%
same,cell viability,[7],105%
same,cell viability,[8],103%
same,cell viability,[9],101%
same,cell viability,[10],66.9%
same,cell viability,[11],8.75%
same,cell viability,[12],105%
same,cell viability,[13],93.6%
same,cell viability,[14],106%
same,cell viability,[15],102%
same,cell viability,[16],99.9%
same,cell viability,[17],98.2%
same,cell viability,[18],101%
same,cell viability,[19],100%
same,cell viability,[20],98.6%
same,cell viability,[21],54%
same,cell viability,[22],59.3%
same,cell viability,[23],85.3%
same,cell viability,[24],91.2%
same,cell viability,[25],96.2%
same,cell viability,[26],94.3%
same,cell viability,[27],104%
same,cell viability,[28],95.5%
same,cell viability,[29],101%
same,cell viability,[30],103%
same,cell viability,[31],90.1%
same,cell viability,[32],34.7%
same,cell viability,[33],50.3%
CCN(CC)CCOC1=CC=C(NC2=NC=C3\C=C(/C(=O)N(C)C3=N2)C4=C(Cl)C=CC=C4Cl)C=C1,cell viability,[1],107%
same,cell viability,[2],114%
same,cell viability,[3],109%
same,cell viability,[4],84.8%
same,cell viability,[5],111%
same,cell viability,[6],96.5%
same,cell viability,[7],99.6%
same,cell viability,[8],109%
same,cell viability,[9],21.8%
same,cell viability,[10],5.01%
same,cell viability,[11],4.01%
same,cell viability,[12],122%
same,cell viability,[13],120%
same,cell viability,[14],118%
same,cell viability,[15],85.2%
same,cell viability,[16],109%
same,cell viability,[17],101%
same,cell viability,[18],113%
same,cell viability,[19],106%
same,cell viability,[20],13.3%
same,cell viability,[21],4.01%
same,cell viability,[22],6.43%
same,cell viability,[23],118%
same,cell viability,[24],124%
same,cell viability,[25],122%
same,cell viability,[26],94.6%
same,cell viability,[27],109%
same,cell viability,[28],96.9%
same,cell viability,[29],111%
same,cell viability,[30],113%
same,cell viability,[31],12.1%
same,cell viability,[32],4.8%
same,cell viability,[33],6.66%
COc1cc(N2CCC(N3CCN(C)CC3)CC2)ccc1Nc1ncnc(Nc2ccccc2[S+](=O)([O-])C(C)C)n1,cell viability,[1],113%
same,cell viability,[2],117%
same,cell viability,[3],120%
same,cell viability,[4],125%
same,cell viability,[5],97.9%
same,cell viability,[6],128%
same,cell viability,[7],122%
same,cell viability,[8],117%
same,cell viability,[9],115%
same,cell viability,[10],90.1%
same,cell viability,[11],28.4%
same,cell viability,[12],97.4%
same,cell viability,[13],90.7%
same,cell viability,[14],100%
same,cell viability,[15],110%
same,cell viability,[16],74.5%
same,cell viability,[17],112%
same,cell viability,[18],106%
same,cell viability,[19],103%
same,cell viability,[20],103%
same,cell viability,[21],91.2%
same,cell viability,[22],44.9%
same,cell viability,[23],112%
same,cell viability,[24],97%
same,cell viability,[25],118%
same,cell viability,[26],119%
same,cell viability,[27],84%
same,cell viability,[28],125%
same,cell viability,[29],120%
same,cell viability,[30],119%
same,cell viability,[31],114%
same,cell viability,[32],83.4%
same,cell viability,[33],47.3%
c1ccc2c(-c3cnn4cc(-c5ccc(N6CCNCC6)cc5)cnc34)ccnc2c1,cell viability,[1],97.9%
same,cell viability,[2],103%
same,cell viability,[3],150%
same,cell viability,[4],144%
same,cell viability,[5],151%
same,cell viability,[6],141%
same,cell viability,[7],146%
same,cell viability,[8],126%
same,cell viability,[9],125%
same,cell viability,[10],121%
same,cell viability,[11],59.3%
same,cell viability,[12],88.7%
same,cell viability,[13],91.2%
same,cell viability,[14],161%
same,cell viability,[15],182%
same,cell viability,[16],191%
same,cell viability,[17],166%
same,cell viability,[18],142%
same,cell viability,[19],123%
same,cell viability,[20],111%
same,cell viability,[21],107%
same,cell viability,[22],2.89%
same,cell viability,[23],96%
same,cell viability,[24],96.6%
same,cell viability,[25],175%
same,cell viability,[26],169%
same,cell viability,[27],168%
same,cell viability,[28],164%
same,cell viability,[29],168%
same,cell viability,[30],138%
same,cell viability,[31],119%
same,cell viability,[32],120%
same,cell viability,[33],3.35%
CN[C@@H](C)C(=O)N[C@H]1CCCC[C@H]2CC[C@@H](C(=O)N[C@@H](c3ccccc3)c3cn(CCCCc4ccc(CCCCn5cc([C@@H](NC(=O)[C@@H]6CC[C@@H]7CCCC[C@H](NC(=O)[C@H](C)NC)C(=O)N76)c6ccccc6)nn5)cc4)nn3)N2C1=O,cell viability,[1],103%
same,cell viability,[2],101%
same,cell viability,[3],99.3%
same,cell viability,[4],95.4%
same,cell viability,[5],102%
same,cell viability,[6],99.8%
same,cell viability,[7],94.8%
same,cell viability,[8],104%
same,cell viability,[9],96.3%
same,cell viability,[10],96.8%
same,cell viability,[11],94.7%
same,cell viability,[12],98.6%
same,cell viability,[13],104%
same,cell viability,[14],92%
same,cell viability,[15],106%
same,cell viability,[16],92.8%
same,cell viability,[17],99.7%
same,cell viability,[18],115%
same,cell viability,[19],97.9%
same,cell viability,[20],96.2%
same,cell viability,[21],97.1%
same,cell viability,[22],79.9%
same,cell viability,[23],90.8%
same,cell viability,[24],110%
same,cell viability,[25],94.7%
same,cell viability,[26],84.7%
same,cell viability,[27],93%
same,cell viability,[28],101%
same,cell viability,[29],97.3%
same,cell viability,[30],98%
same,cell viability,[31],92.1%
same,cell viability,[32],93.5%
same,cell viability,[33],72.9%
Cc1c(OCC(F)(F)F)ccnc1C[S+]([O-])c1nc2ccccc2[nH]1 (stereo unspecified),cell viability,[1],99.9%
same,cell viability,[2],111%
same,cell viability,[3],109%
same,cell viability,[4],105%
same,cell viability,[5],108%
same,cell viability,[6],113%
same,cell viability,[7],113%
same,cell viability,[8],112%
same,cell viability,[9],118%
same,cell viability,[10],112%
same,cell viability,[11],107%
same,cell viability,[12],99%
same,cell viability,[13],100%
same,cell viability,[14],98.2%
same,cell viability,[15],94%
same,cell viability,[16],106%
same,cell viability,[17],115%
same,cell viability,[18],108%
same,cell viability,[19],112%
same,cell viability,[20],114%
same,cell viability,[21],101%
same,cell viability,[22],102%
same,cell viability,[23],102%
same,cell viability,[24],102%
same,cell viability,[25],102%
same,cell viability,[26],111%
same,cell viability,[27],104%
same,cell viability,[28],103%
same,cell viability,[29],110%
same,cell viability,[30],112%
same,cell viability,[31],108%
same,cell viability,[32],111%
same,cell viability,[33],96.2%

# From the supplement of paper PMC11451515
